Experimental data as given in patent US6489307B1, “Antisense compositions targeted to β1-adrenoceptor-specific mRNA and methods of use” (University of Florida, priority 1998, dated 2002).
Values joined by “and” are separate entries in the source; they are usually repeats but may differ in a detail not shown here. Equal values may be shown once. “Also recorded” adds a separate entry of the source.

Experiments:
SHRs [1] = assay: Telemetric monitoring of conscious SHRs during dobutamine infusion; format: in vivo, rat (SHR)
Method: Two days after catherization of the jugular vein, control values were taken and 1 mg/kg β1-AS-ODN was injected. 48 hr later, rats were tested for the effect of β1-AS-ODN. The rats were allowed to recover until all the cardiovascular parameters returned to control values. […] For β1-stimulation, SHRs were infused with dobutamine (β1-selective agonist) through a jugular vein catheter at 5, 10, 20, and 40 μg·kg^−1·min.^−1. Each dose was given for 5 min. continuously and at 1-hr intervals until all the cardiovascular parameters returned to baseline values so as to avoid the effect of tachyphylaxis. BP and HR were sampled every 1 min. dP/dtmax was calculated from the slope of the rising pulse-pressure curve and determined every 1 min. The difference between values at each dose and baseline was denoted as Δ.
Two days after catheterization of jugular vein, control values were taken and 1 mg/kg β1-AS-ODN was injected. Forty-eight hr later, rats were tested for the effect of β1-AS-ODN. The rats were allowed to recover until all the cardiovascular parameters returned to control values. […] For β1-stimulation, SHR were infused with dobutamine (β1-selective agonist) through jugular vein catheter at 5, 10, 20, 40 μg/kg/min. Each dose was given for 5 min continuously and at 1-hr intervals until all cardiovascular parameters returned to baseline so as to avoid the effect of tachyphylaxis. BP and HR were sampled every min. dP/dtmax was calculated from the slope of the rising pulse pressure curve and determined every min. The difference between values at each dose and baseline was denoted as Δ.

β1-AR mRNA = assay: RT-PCR of β1-AR mRNA in myocardium; format: in vivo, Sprague-Dawley rats; conditions: adjusted for GAPDH
Method: Total RNA was isolated from rat myocardium with the single step acid-guanidinum thiocyanate-phenol-chloroform method and quantified (Chomcznski and Sacchi, 1987). One μg of total RNA was reverse transcribed with oligo-dT (Promega) and M-MLV reverse transcriptase (Promega) at 37° C. for one hr. 1.5 μl of RT material was amplified with Taq DNA polymerase (Promega) using a primer pair specific to β1-AR:
PCR™ product was 432 base pairs. For PCR, 35 cycles were used at 95° C. for one minute, 60° C. for one minute, and 72° C. for one min. The RT-PCR™ amplified samples were visualized on 1.8% agarose gels using ethidium bromide. A primer pair of rat GAPDH was used as control:
For PCR™, 35 cycles were used at 95° C. for one min, 60° C. for one min, 72° C. for one min. PCR™ product was 504 base pairs. Relative intensity of bands of interest were analyzed by NSF-300G Scanner (Microtek) (Yang et al., 1998; Li et al., 1999).

SHRs [2] = format: in vivo, rat (SHR)
Method: (§1) Each rat cage was placed on a receiver (RLA 1020, Data Sciences, St. Paul, Minn.) for measurement of cardiovascular parameters. Data were collected with a computer-based data acquisition program (Dataquest Lab-PRO3.0; Data Sciences). BP and HR were measured every 10 min. and averaged every 1 to 24 hrs. Before treatment, SHRs were monitored for a week to get a stable baseline.
as §1, with “(RLA1020,” for “(RLA 1020,”, “Sciences)” for “Sciences, St. Paul, Minn.)”, “LabPRO3.0;” for “Lab-PRO3.0;”, “min” for “min.”, “hr.” for “hrs.”, “SHR” for “SHRs”

MDA (lipid peroxidation) = assay: MDA levels in myocardium after ischemia-reperfusion; format: in vivo, Sprague-Dawley rats; conditions: pretreatment before ischemia-reperfusion; vs saline
Method: Malondialdehyde (MDA) levels in myocardium were measured in duplicate by a modification of the method of Ohkawa et al., (1979). Briefly, the ventricular tissues were homogenized. The assay mixture consisted of 0.1 ml of the tissue homogenate, 0.4 ml of 0.9% NaCl, 0.5 ml of 3% sodium dodecylsulfate, 3 ml of TBA (thiobarbituric acid reagent, containing equal parts of 0.8% aqueous thiobarbituric acid and acetic acid) and was heated for 75 min at 95° C. Thereafter, 1 ml cold 0.9% NaCl was added to the mixture, which was cooled and extracted with 5 ml n-butanol. After centrifugation at 3,000 rpm for 15 min, the butanol phase was assayed spectrophotometrically at 532 nm. Tetramethoxypropane (in amounts of 0, 0.1, 0.2, 0.4, 0.8, 1.0 nmole) served as external standard. MDA levels in myocardium were expressed in μmol/g tissue.

β1-AR protein = assay: Western blot of β1-AR protein in myocardium; format: in vivo, Sprague-Dawley rats; conditions: Western analysis
Method: Myocardial tissues were homogenized and lysed in boiling lysis buffer (1% SDS, 0.1% Triton X-100®, and 10 mmol/L Tris-HCl, pH 7.4) and centrifuged at 10,000 RPM for 30 minutes at 4° C. The lysate protein from myocardial tissues (20 μg/lane) was separated by 8% SDS-PAGE using a Bio-Rad Mini-Protean cell, transferred to nitrocellulose membrane (Amersham). After incubation in blocking solution (4% non-fat milk, Sigma), membranes were incubated with 1:1000 dilation primary antibody (polycolonal antibody to β1-AR, Santa Cruz Biotechnology) for overnight at 4° C. Membranes were washed and incubated with 1:2000 dilution second antibody (Amersham) for one hr. The membranes were detected with the ECL system, as described previously (Yang et al, 1998; Li et al., 1999).

isolated rat heart = assay: Isolated perfused heart model, myocardial ischemia-reperfusion; format: in vivo, Sprague-Dawley rats; conditions: 2 mg/kg 6 hr before
Method: Male Sprague-Dawley rats weighing 200-250 g were injected intravenously with either AS-ODNs (n=7) or IN-ODNs (n=7) at a dose of 200 μg/rat 4 days before excising the hearts. DOTAP/DOPE liposomes (700 μg/rat) were given along with ODNs.
The hearts were excised rapidly and placed in ice-cold Kreb-Henseleit buffer (mmol/L: NaCl 118, KCl 4.7, KH2PO4 1.2, MgSO4 1.2, CaCl2 1.25, NaHCO3 25, and glucose 11, pH 7.4). Within one min, the hearts were transferred to an isolated perfusion apparatus and perfused via the aorta with oxygen-saturated (95% O2+5% CO2) Kreb-Henseleit buffer kept at 37° C. with the use of a MasterFlex pump (model 7015-21, Cole-Palmer Instrument Co.) according to the modified Langendroff procedure (Yang et al., 1998; Neely and Rovetto, 1975). The heart was placed in a semi-closed circulating water-warmed (37° C.) air chamber, paced atrially with a Medtronic 5320 pacemaker at a rate of 300 bpm, and perfused at a constant flow (5.5-6.0 ml/per min). Coronary perfusion pressure (CPP) was measured via a catheter placed just proximal to the aorta and connected to a Gould Statham P23ID pressure transducer. A latex balloon filled with water and connected to a Gould Statham P23ID pressure transducer was inserted in the left ventricle through the left atrium to measure left ventricular end-diastolic pressure (LVEDP), left ventricular systolic pressure (LVSP), and developed left ventricular pressure (dLVP) (dLVP=LVSP−LVEDP). LVEDP during equilibration was set at 5 to 7 mmHg. All measurements were continuously recorded on a 4-channel record (Astro-Med).
Six hearts from saline-treated rats were continuously perfused with Kreb-Henseleit buffer for 80 min and served as sham control. Hearts from other rats, after 20 min of equilibration, were subjected to 30 min of ischemia followed by 30 min of reperfusion. After completion of the study, hearts were frozen in liquid-nitrogen for β1-AR analysis by binding assay, β1-AR protein analyses by Western blot, β1-AR mRNA analysis by reverse transcription-polymerase chain reaction (RT-PCR™), and measurement of MDA.
The protective effects of β1-AS-ODNs were tested in a rat model of myocardial ischemia-reperfusion. Five groups of SD rats were studied. Sham controls (n=6) were injected with saline and perfused continuously for 80 min without ischemia/reperfusion (I/R). In other groups, hearts were perfused for 20 min and subjected to global ischemia (30 min) followed by reperfusion (30 min). […] AS-ODN+I/R (n=7) or INV-ODN+I/R (n=7) were injected iv. with 1 mg/kg β1-AS-ODN or INV-ODN 4 days before the I/R study was performed.

| bradycardia (SHRs [2]; rat, in vivo) | Structure (SMILES) | effect on SBP (SHRs [1]; higher infusion speed) | elevation of SBP (SHRs [1]; low infusion speed) | increase of mRNA for β1-AR in myocardium (β1-AR mRNA) | duration of hypotensive effect (SHRs [2]; 1 mg/kg i.v.) | onset of hypotensive effect after injection (SHRs [2]; 1 mg/kg i.v.) | duration of action (SHRs [2]; comparison with β1-AS-ODN) | increase in MDA levels in the myocardium (MDA (lipid peroxidation)) | ischemia-reperfusion-mediated increase in β1-AR protein expression (β1-AR protein) | basal (resting) HR (SHRs [1]; 1 mg/kg, control 365±8) | time until inotropic and chronotropic effects of dobutamine returned to control levels (SHRs [1]; after 1 mg/kg administration) | increase in CPP and LVEDP induced by ischemia-reperfusion (isolated rat heart) | ischemia-reperfusion-induced change in LVSP and dLVP (isolated rat heart) |
| --- | --- | --- | --- | --- | --- | --- | --- | --- | --- | --- | --- | --- | --- |
| – | CC(CCc1ccc(O)cc1)NCCc1ccc(O)c(O)c1 (stereo not shown) [Dobutamine, dobutamine] | reduced SBP; also recorded: reduced SPB | 5 to 8 mm Hg and 5-8 mm Hg | – | – | – | – | – | – | – | – | – | – |
| appreciable bradycardia | CC(C)NCC(O)COc1ccc(CC(N)=O)cc1 (stereo not shown) [atenolol, reference compound] | – | – | not significantly affected | 10 h | 20 min | less than 1 day | attenuated the increase | no effect | 295±12 bpm | ≤ 24 h | reduced the increase | modestly attenuated |
